Laboratory results taken from patent US20230271950A1, “ANTIBACTERIAL PICOLINAMIDE COMPOUNDS” (University of Notre Dame Du Lac, priority 2020, published 2023).
Values after ≈ are worked out from the molar mass of the structure shown. Where two headings read alike, the source gives them in different places.

Columns and labels:
C. difficile = test: MIC by broth microdilution against C. difficile strains; assay type: cell-based, Clostridioides difficile; conditions: Clostridioides difficile; for MIC: Table 9, read-out: MIC
E. faecium NCTC7171 = test: MIC against E. faecium; assay type: cell-based, Enterococcus faecium; conditions: Enterococcus faecium; E. faecium NCTC7171; Table 1; read-out: MIC
Bifidobacterium longum = test: MIC against gut bacterium Bifidobacterium longum; assay type: cell-based; conditions: Bifidobacterium longum, Bifidobacterium longum strain HM-846, read-out: MIC
Veillonella sp. HM-49 = test: MIC against gut bacterium Veillonella sp.; assay type: cell-based
Corynebacterium spp. = test: MIC against gut bacterium Corynebacterium spp.; assay type: cell-based; conditions: Corynebacterium, Corynebacterium spp. strain HM-784

MIC (C. difficile; C. difficile NR-32882): 0.25 µg/mL (≈ 1.46 µM)
MIC (C. difficile; C. difficile NR-32883): 0.5 µg/mL (≈ 2.92 µM)
MIC (C. difficile; C. difficile NR-32884): 0.5 µg/mL (≈ 2.92 µM)
MIC (C. difficile; C. difficile NR-32885): 0.5 µg/mL (≈ 2.92 µM)
MIC (C. difficile; C. difficile NR-32886): 0.5 µg/mL (≈ 2.92 µM)
MIC (C. difficile; C. difficile NR-32887): 2 µg/mL (≈ 11.7 µM)
MIC (C. difficile; C. difficile NR-32888): 0.5 µg/mL (≈ 2.92 µM)
MIC (C. difficile; C. difficile NR-32889): 2 µg/mL (≈ 11.7 µM)
MIC (C. difficile; C. difficile NR-32890): 0.5 µg/mL (≈ 2.92 µM)
MIC (C. difficile; C. difficile NR-32891): 0.25 µg/mL (≈ 1.46 µM)
MIC (C. difficile; C. difficile NR-32892): 0.5 µg/mL (≈ 2.92 µM)
MIC (C. difficile; C. difficile NR-32895): 1 µg/mL (≈ 5.84 µM)
MIC (C. difficile; C. difficile NR-32896): 1 µg/mL (≈ 5.84 µM)
MIC (C. difficile; C. difficile NR-32897): 0.5 µg/mL (≈ 2.92 µM)
MIC (C. difficile; C. difficile NR-32900): 1 µg/mL (≈ 5.84 µM)
MIC (C. difficile; C. difficile NR-32903): 0.5 µg/mL (≈ 2.92 µM)
MIC (C. difficile; C. difficile NR-32904): 0.5 µg/mL (≈ 2.92 µM)
MIC (C. difficile; C. difficile NR-49277): 0.5 µg/mL (≈ 2.92 µM)
MIC (C. difficile; C. difficile NR-49278): 0.5 µg/mL (≈ 2.92 µM)
MIC (C. difficile; C. difficile NR-49279): 1 µg/mL (≈ 5.84 µM)
MIC (C. difficile; C. difficile NR-49280): 1 µg/mL (≈ 5.84 µM)
MIC (C. difficile; C. difficile NR-49281): 1 µg/mL (≈ 5.84 µM)
MIC (C. difficile; C. difficile NR-49282): 0.5 µg/mL (≈ 2.92 µM)
MIC (C. difficile; C. difficile NR-49283): 0.5 µg/mL (≈ 2.92 µM)
MIC (C. difficile; C. difficile NR-49284): 0.5 µg/mL (≈ 2.92 µM)
MIC (C. difficile; C. difficile NR-49285): 0.5 µg/mL (≈ 2.92 µM)
MIC (C. difficile; C. difficile NR-49286): 1 µg/mL (≈ 5.84 µM)
MIC (C. difficile; C. difficile NR-49287): 0.5 µg/mL (≈ 2.92 µM)
MIC (C. difficile; C. difficile NR-49288): 0.5 µg/mL (≈ 2.92 µM)
MIC (C. difficile; C. difficile NR-49289): 0.5 µg/mL (≈ 2.92 µM)
MIC (C. difficile; C. difficile NR-49290): 1 µg/mL (≈ 5.84 µM)
MIC (C. difficile; C. difficile NR-49291): 1 µg/mL (≈ 5.84 µM)
MIC (C. difficile; C. difficile NR-49293): 0.5 µg/mL (≈ 2.92 µM)
MIC (C. difficile; C. difficile NR-49295): 0.5 µg/mL (≈ 2.92 µM)
MIC (C. difficile; C. difficile NR-49296): 0.5 µg/mL (≈ 2.92 µM)
MIC (C. difficile; C. difficile NR-49297): 0.5 µg/mL (≈ 2.92 µM)
MIC (C. difficile; C. difficile NR-49298): 1 µg/mL (≈ 5.84 µM)
MIC (C. difficile; C. difficile NR-49299): 0.5 µg/mL (≈ 2.92 µM)
MIC (C. difficile; C. difficile NR-49300): 0.5 µg/mL (≈ 2.92 µM)
MIC (C. difficile; C. difficile NR-49301): 0.5 µg/mL (≈ 2.92 µM)
MIC (C. difficile; C. difficile NR-49303): 0.5 µg/mL (≈ 2.92 µM)
MIC (C. difficile; C. difficile NR-49304): 0.5 µg/mL (≈ 2.92 µM)
MIC (C. difficile; C. difficile NR-49306): 0.5 µg/mL (≈ 2.92 µM)
MIC (C. difficile; C. difficile NR-49307): 0.5 µg/mL (≈ 2.92 µM)
MIC (C. difficile; C. difficile NR-49308): 0.5 µg/mL (≈ 2.92 µM)
MIC (C. difficile; C. difficile NR-49309): 0.25 µg/mL (≈ 1.46 µM)
MIC (C. difficile; C. difficile NR-49311): 0.5 µg/mL (≈ 2.92 µM)
MIC (C. difficile; C. difficile NR-49312): 0.5 µg/mL (≈ 2.92 µM)
MIC (C. difficile; C. difficile NR-49313): 0.5 µg/mL (≈ 2.92 µM)
MIC (C. difficile; C. difficile NR-49314): 0.5 µg/mL (≈ 2.92 µM)
MIC (C. difficile; C. difficile NR-49315): 0.5 µg/mL (≈ 2.92 µM)
MIC (C. difficile; C. difficile NR-49316): 0.5 µg/mL (≈ 2.92 µM)
MIC (C. difficile; C. difficile NR-49317): 0.5 µg/mL (≈ 2.92 µM)
MIC (C. difficile; C. difficile NR-49319): 0.5 µg/mL (≈ 2.92 µM)
MIC (C. difficile; C. difficile NR-49320): 0.5 µg/mL (≈ 2.92 µM)
MIC (C. difficile; C. difficile NR-49321): 0.5 µg/mL (≈ 2.92 µM)
MIC (C. difficile; C. difficile NR-49323): 0.25 µg/mL (≈ 1.46 µM)
MIC (C. difficile; C. difficile NR-49324): 0.25 µg/mL (≈ 1.46 µM)
MIC (C. difficile; C. difficile NR-49325): 0.5 µg/mL (≈ 2.92 µM)
MIC (C. difficile; C. difficile NR-49326): 0.5 µg/mL (≈ 2.92 µM)
MIC (C. difficile; C. difficile NR-49327): 0.5 µg/mL (≈ 2.92 µM)
MIC (C. difficile; C. difficile NR-49328): 0.25 µg/mL (≈ 1.46 µM)
MIC (C. difficile; C. difficile NR-49329): 0.25 µg/mL (≈ 1.46 µM)
MIC50 (C. difficile; 101 C. difficile strains): 0.5 µg/mL (≈ 2.92 µM)
MIC90 (C. difficile; 101 C. difficile strains, read-out: MIC90 (101 strains)): 1 µg/mL (≈ 5.84 µM)
MIC (E. faecium NCTC7171): > 128 µg/mL
MIC (Bifidobacterium longum; Table 1): 0.5 µg/mL (≈ 2.92 µM)
MIC (Bifidobacterium longum; Table 7): 1 µg/mL (≈ 5.84 µM)
MIC (Veillonella sp. HM-49; SP.HM49, Veillonella sp. HM-49, Table 1, read-out: MIC): 2 µg/mL (≈ 11.7 µM)
MIC (Veillonella sp. HM-49; Veillonella sp. strain HM-49, Table 7): 2 µg/mL (≈ 11.7 µM)
MIC (Corynebacterium spp.; Table 1): > 32 µg/mL
MIC (Corynebacterium spp.; Table 7): > 32 µg/mL
Structure (SMILES): Cc1ncc([N+](=O)[O-])n1CCO [MTZ, metronidazole, reference compound]
